What was measured:
[1] = system: bacteria (S. aureus) biofilm and fungal (C. albicans) biofilm; test: Sustained inhibition biofilm assay, bacterial and fungal taken together; format: cell-based; conditions: sustained inhibition assay; bacterial and fungal biofilm; 1% amino acid (unless specifically noted); p≤0.001
Protocol: (§1) Two types of biofilm assays were performed: a sustained inhibition assay and a disruption assay. The sustained inhibition assay assesses the compound's ability to prevent biofilm development throughout all stages of biofilm formation, while the disruption assay assesses the compound's ability to break up an existing mature biofilm. These assays are described in detail in the following article: Lohse, M. B., Gulati, M., Valle Arevalo, A., Fishburn, A., Johnson, A. D., and Nobile, C. J. (2017) Assessment and optimizations of Candida albicans in vitro biofilm assays. Antimicrobial Agents and Chemotherapy 61: e02749-16.
(§2) For fungal biofilm assays, all solutions were prepared in RPMI 1640 medium. All bacterial biofilm solutions were prepared in Trypic Soy Broth (TSB), supplemented with 1% glucose (henceforth referred to as TSB-G). All subsequent procedures were performed in a manner that maintained sterility. A solution of each amino acid to be tested was prepared in weight to volume concentrations ranging from 0.1-5.0%. Amino acids were also tested in combinations. Compound solutions were homogenized with gentle agitation in the dark (4° C., 24 hours) before use.
Fungal strains were streaked on Yeast Peptone Dextrose (YPD) agar plates and incubated at 30° C. for 48 hours. A single colony from each strain to be tested was inoculated into YPD broth and grown for 12 hours, at 30° C., shaking at 225 rpm. For the fungal biofilm inhibition assay, 1 μl of saturated overnight cell culture was added to either 80 μL of RPMI-1640 or RPMI-1640 supplemented with the amino acid compound solution to be tested, in a 384-well plate. […] Media was carefully aspirated and the biofilm was measured by optical density at 600 nm. […] Media was carefully aspirated and the biofilm was measured by optical density at 600 nm. […]
Bacterial strains were streaked on Blood Agar plates (5% sheep blood in Tryptic Soy Agar) and incubated at 37° C. for 24 hours. […] Media was carefully aspirated and the biofilm was measured by optical density at 600 nm. […]

S. aureus [2] = test: Disruption biofilm assay, bacterial; format: cell-based, Staphylococcus aureus; conditions: Staphylococcus aureus, 24 h; disruption assay; S. aureus; 1% amino acid (unless specifically noted); p≤0.001; read-out: Reduce B Biofilm
Protocol: as §1, with “J. (2017) Assessment and optimizations of Candida albicans in vitro biofilm assays.” left out
as §2, with “All” for “For fungal biofilm assays, all solutions were prepared in RPMI 1640 medium. All”
(§3) Bacterial strains were streaked on Blood Agar plates (5% sheep blood in Tryptic Soy Agar) and incubated at 37° C. for 24 hours. A single colony from each strain to be tested was inoculated in a TSB broth and grown for 12 hours, at 37° C. with shaking (225 rpm). For the bacterial biofilm inhibition assays, 1 μL of saturated overnight cell culture was added to either 80 μL of TSB-G, or TSB-G supplemented with the amino acid compound solution to be tested, in a 384-well plate. The cells were allowed to adhere to the plate for 60 minutes at 37° C. without shaking. The media was carefully aspirated and 80 μL of TSB-G, or TSB-G supplemented with the amino acid compound solution was added to the plate. The plate was further incubated for 24 hours at 37° C. without shaking. Media was carefully aspirated and the biofilm was measured by optical density at 600 nm. Eight or twelve replicates were performed for each tested condition and the reported values are normalized to the control (TSB-G media only). For the bacterial biofilm disruption assays, 80 μL of TSB-G was added to the plate, along with 1 μL of overnight cell culture. The cells were allowed to adhere to the plate for 60 minutes at 37° C. with no shaking. The media was carefully aspirated and 80 μL of TSB-G was added to the plate. The plate was further incubated for 24 hours at 37° C. with no shaking. Media was carefully aspirated from the mature biofilm and 80 μL of TSB-G, or TSB-G supplemented with the amino acid to be tested, was gently added to the plate. The plate was further incubated for 24 hours at 37° C. without shaking. Media was aspirated and the biofilm was measured by optical density at 600 nm. Twelve replicates were performed for each tested condition and the reported values are normalized to the control (TSB-G media only).

S. aureus [3] = test: Sustained inhibition biofilm assay, bacterial; format: cell-based, Staphylococcus aureus; conditions: sustained inhibition assay; S. aureus; 1% amino acid (unless specifically noted); p≤0.001
Protocol: as §1, with “J. (2017) Assessment and optimizations of Candida albicans in vitro biofilm assays.” left out
as §2, with “All” for “For fungal biofilm assays, all solutions were prepared in RPMI 1640 medium. All”
as §3

N[C@@H](CC(=O)O)C(=O)O [Aspartic Acid, L-aspartic acid]
Reduce Both [1]: ●● (two dots [ie. ••] signifies major effect (greater than about 30% change)) | inhibition at 1 % (S. aureus [2]): > 30% | Reduce B Biofilm (S. aureus [3]): ●● (two dots [ie. ••] signifies major effect (greater than about 30% change))

Reference: patent publication US11779559B2, “Compositions for treating fungal and bacterial biofilms and methods of using the same” (priority 2017, dated 2023)
